Where two headings read alike, the source gives them in different places. Ends that are not written are not given here.
How the values were obtained:
[1] = target: insulin receptor (Homo sapiens, UniProt P06213); assay: Insulin receptor competition binding assay (scintillation proximity); set-up: expressed in transfected cells; plasma membrane fragments
[2] = target: T1, type B insulin receptor (IR-B) (Homo sapiens, UniProt P06213); assay: Receptor kinase activity (phosphorylation) assay, type B insulin receptor; assay type: cell-based; conditions: for % Insulin Activity IR-B: Table 12
T1 construct: expressed in transfected cells; host or cells: HEK293

[3] = target: IGF-1 receptor (Homo sapiens, UniProt P08069); assay: Receptor kinase activity (phosphorylation) assay, IGF-1 receptor; assay type: cell-based; set-up: expressed in transfected cells; host or cells: HEK293; conditions: for % Insulin Activity IGF-1 R: Table 12
[4] = target: T2, type A insulin receptor (IR-A) (Homo sapiens, UniProt P06213); assay: Receptor kinase activity (phosphorylation) assay, type A insulin receptor; assay type: cell-based; conditions: for % Insulin Activity IR-A: Table 12
T2 construct: expressed in transfected cells; host or cells: HEK293

With `CC[C@H](C)[C@H](NC(=O)CN)C(=O)N[C@H](C(=O)N[C@@H](CC(=O)O)C(=O)N[C@@H](CCC(=O)O)C(=O)N[C@H]1CSSC[C@@H]2NC(=O)[C@H](CO)NC(=O)[C@H](C)NC(=O)[C@H](Cc3c[nH]cn3)NC(=O)[C@H](CSSC[C@H](NC(=O)[C@H](CC(C)C)NC(=O)[C@H](Cc3c[nH]cn3)NC(=O)[C@H](CCC(=O)O)NC(=O)[C@@H]3CCCN3C(=O)CN)C(=O)NCC(=O)N[C@@H](C)C(=O)N[C@@H](CC(=O)O)C(=O)N[C@@H](CC(C)C)C(=O)N[C@@H](C(C)C)C(=O)N[C@@H](CC(=O)O)C(=O)N[C@@H](C)C(=O)N[C@@H](CC(C)C)C(=O)N[C@@H](Cc3ccc(O)cc3)C(=O)N[C@@H](CC(C)C)C(=O)N[C@@H](C(C)C)C(=O)N[C@H](C(=O)NCC(=O)N[C@@H](CC(=O)O)C(=O)N[C@@H](C)C(=O)NCC(=O)N[C@@H](Cc3ccccc3)C(=O)N[C@@H](Cc3ccc(O)cc3)C(N)=O)CSSC[C@@H](C(=O)N[C@@H](CC(N)=O)C(=O)O)NC(=O)[C@H](Cc3ccc(O)cc3)NC(=O)[C@H](CC[S+](C)[O-])NC(=O)[C@H](CCC(=O)O)NC(=O)[C@H](CC(C)C)NC(=O)[C@H](CCCNC(=N)N)NC(=O)[C@H](CCCNC(=N)N)NC(=O)[C@H](CC(C)C)NC(=O)[C@H](CC(=O)O)NC2=O)NC1=O)C(C)C` (stereo partly shown) as the molecule, how does the “% insulin (in test)” value [1] read?
The value was 400.7%.

How did the “% of Insulin Activity” value ([1]; Table 8) turn out when `CC[C@H](C)[C@H](NC(=O)CNC(=O)[C@@H]1CCCN1C(=O)[C@H](C)N)C(=O)N[C@H](C(=O)N[C@@H](CC(=O)O)C(=O)N[C@@H](CCC(=O)O)C(=O)N[C@H]1CSSC[C@@H]2NC(=O)[C@H](CO)NC(=O)[C@H](CCCNC(=N)N)NC(=O)[C@H](Cc3ccccc3)NC(=O)[C@H](CSSC[C@H](NC(=O)[C@H](CC(C)C)NC(=O)[C@@H](NC(=O)[C@H](CCC(=O)O)NC(=O)[C@@H]3CCCN3C(=O)CN)[C@@H](C)O)C(=O)NCC(=O)N[C@@H](C)C(=O)N[C@@H](CCC(=O)O)C(=O)N[C@@H](CC(C)C)C(=O)N[C@@H](C(C)C)C(=O)N[C@@H](CC(=O)O)C(=O)N[C@@H](C)C(=O)N[C@@H](CC(C)C)C(=O)N[C@@H](Cc3ccc(O)cc3)C(=O)N[C@@H](CC(C)C)C(=O)N[C@@H](C(C)C)C(=O)N[C@H](C(=O)NCC(=O)N[C@@H](CC(=O)O)C(=O)N[C@@H](CCCNC(=N)N)C(=O)NCC(=O)N[C@@H](Cc3ccccc3)C(=O)N[C@@H](Cc3ccc(O)cc3)C(=O)N[C@@H](Cc3ccccc3)C(=O)N[C@@H](CC(N)=O)C(=O)N[C@@H](CCCCN)C(=O)N3CCC[C@H]3C(=O)N[C@H](C(N)=O)[C@@H](C)O)CSSC[C@@H](C(=O)N[C@@H](C)C(N)=O)NC(=O)[C@H](Cc3ccc(O)cc3)NC(=O)[C@H](CCSC)NC(=O)[C@H](CCC(=O)O)NC(=O)[C@H](CC(C)C)NC(=O)[C@H](CCCNC(=N)N)NC(=O)[C@H](CCCNC(=N)N)NC(=O)[C@H](CC(C)C)NC(=O)[C@H](CC(=O)O)NC2=O)NC1=O)C(C)C` [IGF1 (Y^B16L^B17) (AlaPro)^A-1,0] was run?
The value was 37.12%.

For `CC[C@H](C)[C@H](NC(=O)CN)C(=O)N[C@H](C(=O)N[C@@H](CC(=O)O)C(=O)N[C@@H](CCC(=O)O)C(=O)N[C@H]1CSSC[C@@H]2NC(=O)[C@H](CO)NC(=O)[C@H](CCCNC(=N)N)NC(=O)[C@H](Cc3ccccc3)NC(=O)[C@H](CSSC[C@H](NC(=O)[C@H](CC(C)C)NC(=O)[C@@H](NC(=O)[C@H](CCC(=O)O)NC(=O)[C@@H]3CCCN3C(=O)CN)[C@@H](C)O)C(=O)NCC(=O)N[C@@H](C)C(=O)N[C@@H](CCC(=O)O)C(=O)N[C@@H](CC(C)C)C(=O)N[C@@H](C(C)C)C(=O)N[C@@H](CC(=O)O)C(=O)N[C@@H](C)C(=O)N[C@@H](CC(C)C)C(=O)N[C@@H](Cc3ccc(O)cc3)C(=O)N[C@@H](CC(C)C)C(=O)N[C@@H](C(C)C)C(=O)N[C@H](C(=O)NCC(=O)N[C@@H](CC(=O)O)C(=O)N[C@@H](CCCNC(=N)N)C(=O)NCC(=O)N[C@@H](Cc3ccccc3)C(=O)N[C@@H](Cc3ccc(O)cc3)C(=O)N[C@@H](Cc3ccccc3)C(=O)N[C@@H](CC(N)=O)C(=O)N[C@@H](CCCCN)C(=O)N3CCC[C@H]3C(=O)N[C@H](C(N)=O)[C@@H](C)O)CSSC[C@@H](C(=O)N[C@@H](C)C(N)=O)NC(=O)[C@H](Cc3ccc(N)cc3)NC(=O)[C@H](CCSC)NC(=O)[C@H](CCC(=O)O)NC(=O)[C@H](CC(C)C)NC(=O)[C@H](CCCNC(=N)N)NC(=O)[C@H](CCCNC(=N)N)NC(=O)[C@H](CC(C)C)NC(=O)[C@H](CC(=O)O)NC2=O)NC1=O)C(C)C` [IGF1 (Y^B16L^B17) (p-NH2—F)^A19 amide], which “% of Insulin Activity” value ([1]; Table 7) is on record?
The value was 22%.

Which “% of Insulin Activity” value ([1]; Table 6) does the source give for `CC[C@H](C)[C@H](NC(=O)CN)C(=O)N[C@H](C(=O)N[C@@H](CC(=O)O)C(=O)N[C@@H](CCC(=O)O)C(=O)N[C@H]1CSSC[C@@H]2NC(=O)[C@H](CO)NC(=O)[C@H](CCCNC(=N)N)NC(=O)[C@H](Cc3ccccc3)NC(=O)[C@H](CSSC[C@H](NC(=O)[C@H](CC(C)C)NC(=O)[C@@H](NC(=O)[C@H](CCC(=O)O)NC(=O)[C@@H]3CCCN3C(=O)CN)[C@@H](C)O)C(=O)NCC(=O)N[C@@H](C)C(=O)N[C@@H](CCC(=O)O)C(=O)N[C@@H](CC(C)C)C(=O)N[C@@H](C(C)C)C(=O)N[C@@H](CC(=O)O)C(=O)N[C@@H](C)C(=O)N[C@@H](CC(C)C)C(=O)N[C@@H](Cc3ccc(O)cc3)C(=O)N[C@@H](CC(C)C)C(=O)N[C@@H](C(C)C)C(=O)N[C@H](C(=O)NCC(=O)N[C@@H](CC(=O)O)C(=O)N[C@@H](CCCNC(=N)N)C(=O)NCC(=O)N[C@@H](Cc3ccccc3)C(=O)N[C@@H](Cc3ccc(O)cc3)C(=O)N[C@@H](Cc3ccccc3)C(=O)N[C@@H](CC(N)=O)C(=O)N[C@@H](CCCCN)C(=O)N3CCC[C@H]3C(=O)N[C@H](C(N)=O)[C@@H](C)O)CSSC[C@@H](C(=O)N[C@@H](C)C(N)=O)NC(=O)[C@H](Cc3ccc(O)cc3)NC(=O)[C@H](CCSC)NC(=O)[C@H](CCC(=O)O)NC(=O)[C@H](CC(C)C)NC(=O)[C@H](CCCNC(=N)N)NC(=O)[C@H](CCCNC(=N)N)NC(=O)[C@H](CC(C)C)NC(=O)[C@H](CC(=O)O)NC2=O)NC1=O)C(C)C` [IGF1 (Y^B16L^B17)] here?
The value was 262%.

Which “% insulin (in test)” value ([1]; Table 9, Insulin Receptor) does the source give for `CC[C@H](C)[C@H](NC(=O)CN)C(=O)N[C@H](C(=O)N[C@@H](CC(=O)O)C(=O)N[C@@H](CCC(=O)O)C(=O)N[C@H]1CSSC[C@@H]2NC(=O)[C@H](CO)NC(=O)[C@H](CCCNC(=N)N)NC(=O)[C@H](Cc3ccccc3)NC(=O)[C@H](CSSC[C@H](NC(=O)[C@H](CC(C)C)NC(=O)[C@H](Cc3c[nH]cn3)NC(=O)[C@H](CCC(=O)O)NC(=O)[C@@H]3CCCN3C(=O)CN)C(=O)NCC(=O)N[C@@H](C)C(=O)N[C@@H](CC(=O)O)C(=O)N[C@@H](CC(C)C)C(=O)N[C@@H](C(C)C)C(=O)N[C@@H](CC(=O)O)C(=O)N[C@@H](C)C(=O)N[C@@H](CC(C)C)C(=O)N[C@@H](Cc3ccc(O)cc3)C(=O)N[C@@H](CC(C)C)C(=O)N[C@@H](C(C)C)C(=O)N[C@H](C(=O)NCC(=O)N[C@@H](CC(=O)O)C(=O)N[C@@H](CCCNC(=N)N)C(=O)NCC(=O)N[C@@H](Cc3ccccc3)C(=O)N[C@@H](Cc3ccc(O)cc3)C(N)=O)CSSC[C@@H](C(=O)N[C@@H](C)C(N)=O)NC(=O)[C@H](Cc3ccc(O)cc3)NC(=O)[C@H](CC[S+](C)[O-])NC(=O)[C@H](CCC(=O)O)NC(=O)[C@H](CC(C)C)NC(=O)[C@H](CCCNC(=N)N)NC(=O)[C@H](CCCNC(=N)N)NC(=O)[C@H](CC(C)C)NC(=O)[C@H](CC(=O)O)NC2=O)NC1=O)C(C)C` (stereo partly shown) [IGF-1 A:B(H5D10Y16L17) (S═O) DPI] here?
Its value is 316.0%.

For “B2, A14-PEG10K di-PEGylated MIU-35 (GPEHLCGAELVDALYLVCGDRGFYGYGSSSRKAPQTGIVDECCFRSCDLK(PEG 10 kDa)RLENYCN; not fully specified (N-terminus); ends and bridges not checked; also: PEG10K at B2) [MIU-69]”, which “% Insulin Activity IR-B” value [2] is on record?
The value was 0.5%.

And the “% Insulin Activity IGF-1 R” value [3]?
The value was less than 0.1%.

What about the “% Insulin Activity IR-A” value [4] of the same molecule?
Its value is 1.0%.

With “B2, B22-PEG10K di-PEGylated MIU-35 (GPEHLCGAELVDALYLVCGDK(PEG 10 kDa)GFYGYGSSSRKAPQTGIVDECCFRSCDLRRLENYCN; not fully specified (N-terminus); ends and bridges not checked; also: PEG10K at B2) [MIU-68]” as the molecule, how does the “% Insulin Activity IR-B” value [2] read?
Its value is 0.1%.

And the “% Insulin Activity IGF-1 R” value [3]?
The value was less than 0.1%.

And the “% Insulin Activity IR-A” value [4]?
Its value is 0.4%.

Which results are given for “B2, C8-PEG10K di-PEGylated MIU-35 (GPEHLCGAELVDALYLVCGDRGFYGYGSSSRK(PEG 10 kDa)APQTGIVDECCFRSCDLRRLENYCN; not fully specified (N-terminus); ends and bridges not checked; also: PEG10K at B2) [MIU-67]”?
% Insulin Activity IR-B [2]: 0.1%; % Insulin Activity IGF-1 R [3]: <0.1%; % Insulin Activity IR-A [4]: 0.2%

With “B^1(A5H10Y16L17)25-C^1-A^1(H8N18N21) [Ala,B5]” as the molecule, how does the IR-B [2] read?
Its IR-B is 5.7%.

And the “IGF-1 R” value [3]?
Its value is 2.5%.

With “B^1(H5,10Y16L17A24)25-C^1-A^1(H8N18,N21) [Ala,B24]” as the molecule, how does the IR-B [2] read?
Its IR-B is 0.4%.

What about the “IGF-1 R” value [3] of the same molecule?
The value was 0.3%.

What about the IR-A [4] of the same molecule?
Its IR-A is 0.1%.

Which results are given for “B^1(H5,10Y16L17R29)30-C^1des9-12-A^1(H8,N18,21) (GPEHLCGAHLVDALYLVCGDRGFYFNKRTGYGSSSRRGIVDECCHRSCDLRRLENYCN) [MIU-43]”?
IR-B ([2]; Table 14): 16.7%; IGF-1 R ([3]; Table 14): 14.2%; IR-A ([4]; Table 14): 97.5%

Which IR-B [2] does the source give for “GE5W-B^1(A5H10Y16L17)25-C^1-A^1(H8N18N21) [GE5W-Ala,B5]” here?
The IR-B was 2.3%.

What about the “IGF-1 R” value [3] of the same molecule?
Its value is 0.3%.

What about the IR-A [4] of the same molecule?
The IR-A was 8.6%.
